Reference: patent US20240083857A1, “2-Methyl-Quinazolines” (Bayer Pharma Aktiengesellschaft, priority 2017, published 2024)

Assays:
[1] = target: human SOS1 (nucleotide exchange of K-Ras^G12C) (Homo sapiens, UniProt Q07889); experiment: Biochemical assay 2: K-Ras^G12C activation assay by hSOS1 at high GTP concentration (HTRF); settings: high GTP; read-out: Assay 2 (KRAS-Activation by SOS high GTP) activity expressed as IC50
[2] = target: human SOS1 (loading of human K-Ras^G12C-GDP with fluorescent GTP-analog) (Homo sapiens, UniProt Q07889); experiment: Biochemical assay 3: K-Ras^G12C activation assay by hSOS1 (HTRF); settings: no GTP; for IC50: read-out: Assay 3 (KRAS-Activation by SOS no GTP) activity expressed as IC50; for inhibition at 20 µM: read-out: Assay 3 (KRAS-Activation by SOS no GTP) activity expressed as % inhibition at 20 μM
[3] = target: K-Ras^G12C : hSOS1 interaction (Homo sapiens, UniProt Q07889); experiment: Biochemical assay 1: K-Ras^G12C interaction assay with hSOS1 (HTRF); assay type: binding; settings: for IC50: read-out: Assay 1 (KRAS-SOS Interaction) activity expressed as IC50

Structure (SMILES)	IC50 [1] [nM]	IC50 [2] [nM]	IC50 [3] [nM]	inhibition at 20 µM [2] [%]	inhibition at 20 µM ([3]; read-out: Assay 1 (KRAS-SOS Interaction) activity expressed as % inhibition at 20 μM) [%]
COCc1ccccc1-c1cccc([C@@H](C)Nc2nc(C)nc3cc(OC)c(OC)cc23)c1 [Example 104, 6,7-dimethoxy-N-{(1R)-1-[2′-(methoxymethyl)biphenyl-3-yl]ethyl}-2-methylquinazolin-4-amine]	1900	2520	1820	–	–
COc1cc2nc(C)nc(N[C@H](C)c3cccc(-c4ccc5c(ccn5C)c4)c3)c2cc1OC [Example 105, 6,7-dimethoxy-2-methyl-N-{(1R)-1-[3-{1-methyl-1H-indol-5-yl)phenyl]ethyl}quinazolin-4-amine]	1390	2770	2400	–	–
COc1cc2nc(C)nc(N[C@H](C)c3cccc(-c4cccc(C(=O)N(C)C)c4)c3)c2cc1OC [Example 106, 3′-{(1R)-1-[(6,7-dimethoxy-2-methylquinazolin-4-yl)amino]ethyl}-N,N-dimethylbiphenyl-3-carboxamide]	1530	2050	1410	–	–
COc1cc2nc(C)nc(N[C@H](C)c3cccc(-c4ccc(CO)s4)c3)c2cc1OC [Example 107, [5-(3-{(1R)-1-[(6,7-dimethoxy-2-methylquinazolin-4-yl)amino]ethyl}phenyl)thiophen-2-yl]methanol]	467	438	319	–	–
COc1cc2nc(C)nc(N[C@H](C)c3cccc(-c4ccncc4C)c3)c2cc1OC [Example 108, 6,7-dimethoxy-2-methyl-N-{(1R)-1-[3-(3-methylpyridin-4-yl)phenyl]ethyl}quinazolin-4-amine]	901	1230	821	–	–
COc1cc2nc(C)nc(N[C@H](C)c3cccc(-c4ccc5cc[nH]c5c4)c3)c2cc1OC [Example 109, N-{(1R)-1-[3-(1H-indol-6-yl)phenyl]ethyl}-6,7-dimethoxy-2-methylquinazolin-4-amine]	392	1410	1000	–	–
COc1cc2nc(C)nc(N[C@H](C)c3cccc(-c4cccc5[nH]ccc45)c3)c2cc1OC [Example 110, N-{(1R)-1-[3-(1H-indol-4-yl)phenyl]ethyl}-6,7-dimethoxy-2-methylquinazolin-4-amine]	908	1190	1040	–	–
COc1ncc(-c2cccc([C@@H](C)Nc3nc(C)nc4cc(OC)c(OC)cc34)c2)cn1 [Example 111, 6,7-dimethoxy-N-{(1R)-1-[3-(2-methoxypyrimidin-5-yl)phenyl]ethyl}-2-methylquinazolin-4-amine]	1670	3340	2100	–	–
COc1cc2nc(C)nc(N[C@H](C)c3cccc(-c4cccc(S(C)(=O)=O)c4)c3)c2cc1OC [Example 112, 6,7-dimethoxy-2-methyl-N-{(1R)-1-[3′-(methylsulfonyl)biphenyl-3-yl]ethyl}quinazolin-4-amine]	948	1120	696	–	–
COc1cc2nc(C)nc(N[C@H](C)c3cccc(-c4ccc5c(c4)CCO5)c3)c2cc1OC [Example 113, N-{(1R)-1-[3-(2,3-dihydro-1-benzofuran-5-yl)phenyl]ethyl}-6,7-dimethoxy-2-methylquinazolin-4-amine]	839	2100	1350	–	–
COc1cc2nc(C)nc(N[C@H](C)c3cccc(/C=C/c4ccccc4)c3)c2cc1OC [Example 114, 6,7-dimethoxy-2-methyl-N-[(1R)-1-{3-[(E)-2-phenylethenyl]phenyl}ethyl]quinazolin-4-amine]	2390	9210	5280	–	–
COc1cc2nc(C)nc(N[C@H](C)c3cccc(-c4ccc(C(=O)N(C)C)cc4)c3)c2cc1OC [Example 115, 3′-{(1R)-1-[(6,7-dimethoxy-2-methylquinazolin-4-yl)amino]ethyl}-N,N-dimethylbiphenyl-4-carboxamide]	802	1570	865	–	–
C/C=C/c1cccc([C@@H](C)Nc2nc(C)nc3cc(OC)c(OC)cc23)c1 [Example 116, 6,7-dimethoxy-2-methyl-N-[(1R)-1-{3-[(1E)-prop-1-en-1-yl]phenyl}ethyl]quinazolin-4-amine]	1150	1720	1080	–	–
COc1cc2nc(C)nc(N[C@H](C)c3cccc(C4=CCCC4)c3)c2cc1OC [Example 117, N-{(1R)-1-[3-(cyclopent-1-en-1-yl)phenyl]ethyl}-6,7-dimethoxy-2-methylquinazolin-4-amine]	1350	3080	1650	–	–
COc1cc2nc(C)nc(N[C@H](C)c3cccc(-c4cccc(NS(C)(=O)=O)c4)c3)c2cc1OC [Example 118, N-(3′-{(1R)-1-[(6,7-dimethoxy-2-methylquinazolin-4-yl)amino]ethyl}biphenyl-3-yl)methanesulfonamide]	481	774	529	–	–
COc1cc2nc(C)nc(N[C@H](C)c3cccc(-c4ccccc4NC(C)=O)c3)c2cc1OC [Example 119, N-(3′-{(1R)-1-[(6,7-dimethoxy-2-methylquinazolin-4-yl)amino]ethyl}biphenyl-2-yl)acetamide]	1280	1480	858	–	–
COc1cc2nc(C)nc(N[C@H](C)c3cccc(-c4ccccc4S(C)(=O)=O)c3)c2cc1OC [Example 120, 6,7-dimethoxy-2-methyl-N-{(1R)-1-[2′-(methylsulfonyl)biphenyl-3-yl]ethyl}quinazolin-4-amine]	2020	3530	1590	–	–
COc1cc2nc(C)nc(N[C@H](C)c3cccc(-c4ccccc4NS(C)(=O)=O)c3)c2cc1OC [Example 121, N-(3′-{(1R)-1-[(6,7-dimethoxy-2-methylquinazolin-4-yl)amino]ethyl}biphenyl-2-yl)methanesulfonamide]	679	791	452	–	–
COc1cc2nc(C)nc(N[C@H](C)c3cccc(-c4cccc(OCc5ccccc5)c4)c3)c2cc1OC [Example 123, N-{(1R)-1-[3′-(benzyloxy)biphenyl-3-yl]ethyl}-6,7-dimethoxy-2-methylquinazolin-4-amine]	13100	–	–	42	52
COc1cc2nc(C)nc(N[C@H](C)c3cccc(-c4cc(Cl)cc(Cl)c4)c3)c2cc1OC [Example 124, N-[{1R)-1-(3′,5′-dichlorobiphenyl-3-yl)ethyl]-6,7-dimethoxy-2-methylquinazolin-4-amine]	9300	–	18300	37	–
COc1cc2nc(C)nc(N[C@H](C)c3cccc(-c4ccc5c(c4)OCCO5)c3)c2cc1OC [Example 125, N-{(1R)-1-[3-(2,3-dihydro-1,4-benzodioxin-6-yl)phenyl]ethyl}-6,7-dimethoxy-2-methylquinazolin-4-amine]	1090	2040	2030	–	–
COc1cc2nc(C)nc(N[C@H](C)c3ccc(C#N)cc3)c2cc1OC [Example 189, 4-{(1R)-1-[(6,7-dimethoxy-2-methylquinazolin-4-yl)amino]ethyl}benzonitrile]	1170	2760	998	–	–
COc1cc2nc(C)nc(NC(C)c3cc(Br)cc4c3OCC4)c2cc1OC (stereo not drawn) [Example 225, N-[1-(5-bromo-2,3-dihydro-1-benzofuran-7-yl)ethyl]-6,7-dimethoxy-2-methylquinazolin-4-amine]	2270	4680	1540	–	–
